From patent US20240116985A1, “STAPLED PEPTIDES AND METHODS THEREOF” (priority 2020, published 2024)
Values after ≈ are worked out from the molar mass of the structure shown. Like-named read-outs stand apart in the source and are kept apart here.

Legend:
[1] = target: T1, full-length beta-Catenin (Uniprot ID P35222) (Homo sapiens, UniProt P35222); assay: Fluorescence polarization IC50 (beta-catenin / 5FAM-TCF4 10-53 competition); assay type: binding
T1 construct: 10 nM full-length beta-Catenin (Uniprot ID P35222)
T1 sequence (P35222 1-781): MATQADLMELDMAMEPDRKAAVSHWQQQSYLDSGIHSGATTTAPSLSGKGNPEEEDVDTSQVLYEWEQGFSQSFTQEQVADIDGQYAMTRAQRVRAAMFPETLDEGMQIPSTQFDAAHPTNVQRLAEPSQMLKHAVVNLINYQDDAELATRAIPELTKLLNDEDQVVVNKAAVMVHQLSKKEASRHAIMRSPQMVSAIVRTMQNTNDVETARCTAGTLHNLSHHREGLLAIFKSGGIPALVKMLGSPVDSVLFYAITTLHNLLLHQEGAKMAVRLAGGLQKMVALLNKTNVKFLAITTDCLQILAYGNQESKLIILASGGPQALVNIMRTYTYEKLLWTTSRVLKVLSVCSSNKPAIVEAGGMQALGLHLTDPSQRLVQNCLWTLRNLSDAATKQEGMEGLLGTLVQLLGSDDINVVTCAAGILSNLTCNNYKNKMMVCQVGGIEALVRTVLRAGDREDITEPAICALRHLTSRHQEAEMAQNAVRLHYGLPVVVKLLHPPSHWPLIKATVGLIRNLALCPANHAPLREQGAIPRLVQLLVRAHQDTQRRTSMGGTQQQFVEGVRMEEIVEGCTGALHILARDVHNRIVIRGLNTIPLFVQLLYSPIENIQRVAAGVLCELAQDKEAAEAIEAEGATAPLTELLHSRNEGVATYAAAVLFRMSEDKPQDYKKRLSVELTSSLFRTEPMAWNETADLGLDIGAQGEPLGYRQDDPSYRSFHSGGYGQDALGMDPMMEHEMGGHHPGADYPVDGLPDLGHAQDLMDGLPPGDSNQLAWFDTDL

CHI Log D procedure = assay type: physicochemical
Solubility in PBS = assay type: physicochemical
In short: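 Steps: ultracentrifuge the peptide PBS solution, inject the supernatant on HPLC, inject a 50 μM peptide DMSO solution as reference, then calculate solubility as area ratio (PBS/DMSO) × 50 uM.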

[2] = read-out: FP EC50, fluorescence polarization, beta-catenin
[3] = FP EC50 (nM), fluorescence polarization, beta-catenin

| Structure (SMILES) | IC50 ([1]; read-out: beta-Catenin FP IC50) | chromatographic logD (CHI Log D procedure; pH 7.4, CHI Log D) | Solubility (Solubility in PBS; Solubility (uM)) | IC50 [1, 2] | CHI Log D (CHI Log D procedure; pH 7.4) | Solubility (Solubility in PBS) | IC50 [1, 3] | chromatographic logD (CHI Log D procedure; pH 7.4) |
| --- | --- | --- | --- | --- | --- | --- | --- | --- |
| CC(=O)N1CCC[C@]12CC=CCCCC1(CCCC=CCCCOC(=O)N3CC[C@@](C(=O)N[C@@H](Cc4ccccc4Cl)C(=O)N[C@@H](Cc4csc5ccccc45)C(=O)N[C@@H](CO)C(N)=O)(C3)NC(=O)[C@H]([C@@H](C)O)NC(=O)[C@H](Cc3ccccc3)NC(=O)[C@H](C)NC(=O)[C@H](C)NC(=O)[C@H](CC(=O)O)NC(=O)[C@H](CC(=O)O)NC1=O)NC(=O)[C@H](Cc1ccccc1)NC(=O)[C@H](CC(=O)O)NC2=O (stereo partly drawn) [I-1049, Ac-PL3-Asp-Phe-B5-Asp-Asp-Ala-Ala-Phe-Thr-PyrS2-2C1F-BztA-Ser-NH2] | 6 nM | 2.29 | 48 µM (≈ 91.8 µg/mL) | – | – | – | – | – |
| C[C@@H]1NC(=O)[C@H](C)NC(=O)[C@H](CC(=O)O)NC(=O)[C@H](CC(=O)O)NC(=O)C2(CCCC=CCCCCCC[C@@](C)(C(=O)N[C@@H](Cc3ccsc3)C(=O)N[C@@H](Cc3csc4ccccc34)C(=O)N[C@@H](CCC(N)=O)C(N)=O)NC(=O)[C@H](CC(N)=O)NC(=O)[C@H](Cc3ccccc3)NC1=O)CCCC=CC[C@]1(CCCN1C(=O)CN=[N+]=[N-])C(=O)N[C@@H](CC(=O)O)C(=O)N[C@@H](CC(C)(C)C)C(=O)N2 (stereo partly drawn) [I-1052, AzAc-PL3-Asp-Npg-B5-Asp-Asp-Ala-Ala-Phe-Asn-S8-3Thi-BztA-Gln-NH2] | – | – | – | 9 nM | 2.334 | 33 µM (≈ 63.2 µg/mL) | – | – |
| C[C@@H]1NC(=O)[C@H](C)NC(=O)[C@H](CC(=O)O)NC(=O)[C@H](CC(=O)O)NC(=O)C2(CCCC=CCCCOC(=O)N3CC[C@@](C(=O)N[C@@H](Cc4ccccc4)C(=O)N[C@@H](Cc4csc5ccccc45)C(=O)N[C@@H](Cc4c[nH]cn4)C(N)=O)(C3)NC(=O)[C@H](CC(N)=O)NC(=O)[C@H](Cc3ccccc3)NC1=O)CCCC=CC[C@]1(CCCN1C(=O)CN=[N+]=[N-])C(=O)N[C@@H](CC(=O)O)C(=O)N[C@@H](CC(C)(C)C)C(=O)N2 (stereo partly drawn) [I-1055, AzAc-PL3-Asp-Npg-B5-Asp-Asp-Ala-Ala-Phe-Asn-PyrS2-Phe-BztA-His-NH2] | – | – | – | – | – | 10 µM (≈ 19.6 µg/mL) | 7 nM | 2.11 |
| C[C@@H]1NC(=O)[C@H](C)NC(=O)[C@H](CN(CC(=O)O)CC(F)(F)F)NC(=O)[C@H](Cc2ccsc2)NC(=O)C2(CCCC=CCCCOC(=O)N3CC[C@@](C(=O)N[C@@H](CC(=O)O)C(=O)N[C@@H](Cc4csc5ccccc45)C(=O)N[C@@H](CCC(N)=O)C(N)=O)(C3)NC(=O)[C@H](CC(N)=O)NC(=O)[C@H](Cc3ccccc3)NC1=O)CCCC=CC[C@]1(CCCN1C(=O)CN=[N+]=[N-])C(=O)N[C@@H](CC(=O)O)C(=O)N[C@@H](CC(C)(C)C)C(=O)N2 (stereo partly drawn) [I-1056, AzAc-PL3-Asp-Npg-B5-3Thi-TfeGA-Ala-Ala-Phe-Asn-PyrS2-Asp-BztA-Gln-NH2] | – | – | – | 6490 nM | 1.929 | 41 µM (≈ 84.9 µg/mL) | – | – |
| C[C@@H]1NC(=O)[C@H](C)NC(=O)[C@H](CN(CC(=O)O)CC(F)(F)F)NC(=O)[C@H](Cc2ccsc2)NC(=O)C2(CCCC=CCCCOC(=O)N3CC[C@@](C(=O)N[C@@H](CC(=O)O)C(=O)N[C@@H](Cc4csc5ccccc45)C(=O)N[C@@H](CCC(N)=O)C(N)=O)(C3)NC(=O)[C@H](CC(N)=O)NC(=O)[C@H](Cc3ccccc3)NC1=O)CCCC=CC[C@]1(CCCN1C(=O)CN=[N+]=[N-])C(=O)N[C@@H](CC(=O)O)C(=O)N[C@@H](CC(C)(C)C)C(=O)N2 (stereo partly drawn) [I-1057, AzAc-PL3-Asp-Npg-B5-3Thi-TfeGA-Ala-Ala-Phe-Asn-PyrS2-Asp-BztA-Gln-NH2] | – | – | – | 6640 nM | 1.92 | 50 µM (≈ 104 µg/mL) | – | – |
| C[C@@H]1NC(=O)[C@H](C)NC(=O)[C@H](CC(=O)O)NC(=O)[C@H](CC(=O)O)NC(=O)C2(CCCC=CCCCOC(=O)N3CC[C@@](C(=O)N[C@@H](Cc4ccsc4)C(=O)N[C@@H](Cc4csc5ccccc45)C(=O)N[C@@H](C(N)=O)[C@H](C)O)(C3)NC(=O)[C@H](CC(N)=O)NC(=O)[C@H](Cc3ccccc3)NC1=O)CCCC=CC[C@]1(CCCN1C(=O)CN=[N+]=[N-])C(=O)N[C@@H](CC(=O)O)C(=O)N[C@@H](CC(C)(C)C)C(=O)N2 (stereo partly drawn) [I-1058, AzAc-PL3-Asp-Npg-B5-Asp-Asp-Ala-Ala-Phe-Asn-PyrS2-3Thi-BztA-dThr-NH2] | – | – | – | – | – | 42 µM (≈ 81.2 µg/mL) | 14 nM | 2.25 |
